This note sets out measurements from patent EP4559473A1, “PEPTIDE FOR THE TREATMENT OF DISEASES ASSOCIATED WITH APOLIPOPROTEIN AI OR TRANSTHYRETIN INVOLVEMENT” (Centro de Ingeniería Genética y Biotecnología, priority 2022, dated 2025).

Ends that are not written are not given here.

Data set [1] is described as follows: Treatment of patients with ischemic heart disease and high blood pressure. Type of data set: in vivo. The conditions noted are these: six patients, 1 mg every 12 hours intravenously for seven days; clinical and imaging evaluation. The method, then: It is exemplified with the results of six patients. They presented ischemic heart disease, associated with high blood pressure, which produced a state of severity. They were treated in the Intermediate Care Unit (IMCU) of the "Luis Díaz Soto" hospital in Havana. These patients were treated with a pharmaceutical composition comprising the peptide identified as SEQ ID NO: 1, so that a peptide dose of 1 mg every 12 hours was administered intravenously for seven days. In addition, they received the standard therapy needed for these cases.
The treatment with this peptide was very safe, and verified by monitoring blood biochemistry parameters and differential blood count.

Data set [2] is described as follows: Treatment of patients with type II diabetes (diabetic decompensation). In kind it is in vivo. The conditions noted are these: five patients, 1 mg every 12 hours intravenously for eight days; clinical and imaging evaluation. The method, then:
It is exemplified with ten patients who had diabetic decompensation and reached a state of severity, that let them to be treated in the ICU of the hospital "Luis Díaz Soto" in Havana. Five of these patients were treated with a pharmaceutical composition comprising the peptide identified as SEQ ID NO: 1, so that a peptide dose of 1 mg every 12 hours was administered intravenously for eight days. In addition, they received the standard therapy needed for these cases.
Treatment with this peptide was very safe and was verified by monitoring blood biochemistry parameters and differential blood count.

On to “SIDLKDKYKNIGAKLVQLVANNTNEEA [peptide identified as SEQ ID NO: 1]”, for which the side effects result in data set [1] and in data set [2] was “No side effects were observed” in each case.
